In general, TGI refers to the concentration at which net growth stops. Read a low TGI as more potent growth arrest.

Assay in all cases: DTP human tumour cell line panel, 48 h
Assay [1] deals with HCT-116 colon.
The test system of assay [2] is M14 melanoma.
The test system of assay [3] is NCI-H226 lung.
Assay [4] has as its system HCT-15 colon.
For assay [5], the system named is SNB-75 CNS.
Assay [6] deals with KM12 colon.
Assay [7] has as its system U251 CNS.
Assay [8] concerns A498 renal.
For assay [9], the system named is SR leukemia.
The test system of assay [10] is CAKI-1 renal.

Molecules are shown by their SMILES.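 Five compound concentrations were applied to cells in 96-well plates for 48 hours; endpoints were derived by simple linear interpolation of the resulting dose-response curve. The concentration for full growth arrest is given as TGI.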

With `CC1(C)OC[C@@H](O)[C@H](C#N)CO1`, the TGI in assay [1], in assay [2], in assay [3], in assay [4], in assay [5] and in assay [6] was above 100 µM each time. Moreover, the TGI in assay [7], in assay [8], in assay [9] and in assay [10] was above 100 µM throughout.
Turning to `O=C1NC2c3c(I)sc(I)c3C(O)C2O1` (stereo not given), the TGI in assay [1], in assay [2], in assay [3], in [4], in [5] and in assay [6] was above 100 µM each time. Moreover, the TGI in [7], in assay [8], in assay [9] and in assay [10] was above 100 µM throughout.
For the molecule `C[C@H](CCC(=O)O)[C@H]1CC[C@H]2[C@@H]3C(=O)C[C@@H]4C[C@H](O)CC[C@]4(C)[C@H]3C[C@H](O)[C@]12C`, the TGI in assay [1], in assay [2], in assay [3], in assay [4], in assay [5] and in assay [6] was above 100 µM in each case. In addition, the TGI in assay [7], in [8], in [9] and in [10] was above 100 µM in each case.
As for `BrC(=C(c1ccc(OC2CCCCO2)cc1)c1ccc(OC2CCCCO2)cc1)c1ccccc1` (stereo not given), the TGI in [1], in assay [2], in [3], in assay [4], in [5] and in [6] was above 100 µM in each case. For the same molecule, the TGI in assay [7], in assay [8], in assay [9] and in assay [10] was above 100 µM in each case.
Turning to `CC(C)(C)[Si](C)(C)OCC1OC(n2ccc(=O)[nH]c2=O)C(O[Si](C)(C)C(C)(C)C)/C1=C/C#N` (stereo not given), the TGI in assay [1] is above 53.2 µM; in assay [2], above 100 µM; in assay [3], above 75.8 µM; in assay [4], above 100 µM; in assay [5], above 100 µM; in assay [6], above 42.2 µM. The TGI is above 44 µM in assay [7], 76.6 µM in assay [8], above 100 µM in assay [9] and 98.2 µM in assay [10].
Regarding `O=C(O)CN1CCNCCN(CC(=O)O)CCN(CC(=O)O)CCNCC1`, the TGI in assay [1], in assay [2], in [3], in assay [4], in [5] and in assay [6] was above 100 µM in each case. Besides, the TGI in assay [7], in [8], in assay [9] and in [10] was above 100 µM each time.
`O=C(O)CCNc1ncnc2nc[nH]c12`: the TGI in assay [1], in assay [2], in [3], in [4], in assay [5] and in assay [6] was above 100 µM in each case. Besides, the TGI in [7], in assay [8], in assay [9] and in assay [10] was above 100 µM in each case.
As for `O=C1OC(C2Cc3ccc4ccccc4c3C2=O)c2ccccc21` (stereo not given), the TGI in assay [1] was above 100 µM; in assay [2] it was above 100 µM; in assay [3], 49.7 µM; in assay [4], above 100 µM; in assay [5] it was above 100 µM; in [6], above 100 µM. Further, the TGI in assay [7], in assay [8], in assay [9] and in assay [10] was above 100 µM each time.
Regarding `O=C(O)c1ccccc1CC(Cc1ccc2c(c1)CCC2)C(=O)O` (stereo not given), the TGI in [1], in assay [2], in [3], in assay [4], in assay [5] and in [6] was above 100 µM throughout. Moreover, the concentration for total growth inhibition (TGI) in [7], in [8], in assay [9] and in assay [10] was above 100 µM in each case.
In the case of `CN1CCOC1c1ccccc1O` (stereo not given), the TGI in assay [1], in assay [2], in assay [3], in assay [4], in [5] and in assay [6] was above 100 µM throughout. Moreover, the TGI in assay [7], in [8], in assay [9] and in assay [10] was above 100 µM throughout.
As to `COc1ccc(N2C(=O)CC(=O)N(NC(=O)C(C)Oc3ccccc3C)C2=S)cc1` (stereo not given), the TGI in assay [1], in assay [2], in assay [3], in assay [4], in assay [5] and in [6] was above 100 µM throughout. Further, the TGI in assay [7], in assay [8], in assay [9] and in [10] was above 100 µM throughout.
With `C=C1C(=O)CC2C1CC(=O)/C(C)=C/CCC(C)(O)C2O` (stereo not given), the TGI in [1] is 6.92 µM; in assay [2] it was above 31.2 µM; in assay [3], 61.6 µM; in [4] it was 11.5 µM; in [5], 28 µM; in [6], 29.8 µM. Moreover, the TGI is 40.6 µM in [7], 48.4 µM in [8], above 37.6 µM in assay [9] and 3.37 µM in assay [10].
As for `Cc1ccc(C2=CC(=O)OC(C[P+](c3ccccc3)(c3ccccc3)c3ccccc3)(c3ccccc3)O2)cc1` (stereo not given), the TGI in [1] was determined as 29.2 µM; in assay [2], 32 µM; in assay [3], 60.4 µM; in assay [4] it was 42.8 µM; in [5], 36.2 µM; in [6], 34.3 µM. The TGI in assay [7] is 34.8 µM; in [8], 29.1 µM; in assay [9] it was 61.2 µM; in assay [10] it was 29.3 µM.
`C=CCc1cc(-c2nc(=S)[nH][nH]2)ccc1N=NNc1ccc(C(=O)O)cc1`: the TGI in [1], in assay [2], in assay [3], in assay [4], in assay [5] and in assay [6] was above 100 µM throughout. The TGI in assay [7], in assay [8], in assay [9] and in assay [10] was above 100 µM each time.

The record behind these values is PubChem BioAssay (NCI).
